{"source": "patent US20240166693A1", "about": "“METHODS AND COMPOUNDS FOR MODULATING MYOTONIC DYSTROPY 1” (Design Therapeutics, Inc., priority 2020, published 2024)", "tested_on": "Myotonic Dystrophy 1 affected patient fibroblasts (Coriell GM04602; 1600 CTG repeats)", "assay": "DM1 foci reduction assay (CAG10-Cy3 FISH, average foci per nucleus)", "format": "cell-based", "conditions": "Homo sapiens, Fibroblast, 48 h, read-out: Foci Reduction in Fibroblast EC50, 48 h (nM)", "in_short": "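Read-out is mean nuclear foci per well from CAG10-Cy3 FISH (5 nM probe, overnight 37 °C) with DAPI nuclei, 4 fields per well at 20×. Compounds ran 48 h in 8-point, 3-fold series topping at 3 μM on 1600-CTG GM04602 fibroblasts, alongside GM07492 wild-type cells.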"}
{"smiles": "CC(C)CN(CCCC[C@H](NC(=O)[C@H](CCCN1CCOCC1)NC(=O)[C@@H](NC(=O)[C@H](Cc1ccccc1)NC(=O)c1ccc(C(C)(C)C)cc1)C1CCC1)C(=O)N[C@@H](CO)C(=O)NCCOCCOCCOCCOCCOCCNC(=O)CCNC(=O)c1nc(NC(=O)c2cc(NC(=O)CCNC(=O)c3nc(NC(=O)CCCNC(=O)c4cc(NC(=O)c5nc(NC(=O)CCNC(=O)c6cc(NC(=O)c7nccn7C)cn6C)cn5C)cn4C)cn3C)cn2C)cn1C)C1CC2CCC1C2", "note": "(stereo partly drawn) [Compound 148]", "values": [{"measurement": "EC50", "value": "> 500", "unit": "nM"}]}
{"smiles": "CCN(CC)CCCC[C@H](NC(=O)[C@H](CC(C)C)NC(=O)[C@H](C)NC(=O)[C@H](Cc1ccccc1)NC(=O)c1ccc(C(C)(C)C)cc1)C(=O)N[C@@H](CO)C(=O)NCCOCCOCCOCCOCCOCCNC(=O)c1cc(NC(=O)c2nc(NC(=O)c3cc(NC(=O)CCCNC(=O)c4nc(NC(=O)CCNC(=O)c5cc(NC(=O)c6nccn6C)cn5C)cn4C)cn3C)cn2C)cn1C", "note": "[Compound 115]", "values": [{"measurement": "EC50", "value": "> 500", "unit": "nM"}]}
{"smiles": "CCN(CC)CCCC[C@H](NC(=O)[C@H](CC(C)C)NC(=O)[C@H](C)NC(=O)[C@H](Cc1ccccc1)NC(=O)c1ccc(C(C)(C)C)cc1)C(=O)N[C@@H](CO)C(=O)NCCOCCOCCNC(=O)c1cc(NC(=O)c2cc(NC(=O)c3nc(NC(=O)c4cc(NC(=O)[C@@H](N)CCNC(=O)c5nc(NC(=O)CCNC(=O)c6cc(NC(=O)c7nccn7C)cn6C)cn5C)cn4C)cn3C)cn2C)cn1C", "note": "[Compound 82]", "values": [{"measurement": "EC50", "value": "> 500", "unit": "nM"}]}
